Where two headings read alike, the source gives them in different places.
What was measured:
b-Raf [1] = biological target: T1, b-Raf (Homo sapiens, UniProt P15056, V600E); test: Raf cellular assay (phospho-Mek1/2 ELISA in A2058 cells); format: cell-based; conditions: human melanoma A2058 cells (b-Raf mutation), Mek1/2 Ser217/221 phosphorylation, 1 hour incubation, read-out: pMEK IC50
T1 construct: endogenous in cells; host or cells: A2058 human melanoma cells
How it was run: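 A2058 melanoma cells (B-Raf mutant), seeded overnight in 10% FBS DMEM, were exposed to compounds (11-point 1:3 series, duplicate) for 1 h at 37 °C. Lysates were captured on anti-Mek1-coated plates and Mek1/2 Ser217/221 phosphorylation was read by anti-phospho-Mek1/2 ELISA, HRP/TMB, 450 nm.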

b-Raf [2] = biological target: T2, b-Raf (Homo sapiens, UniProt P15056); test: Raf biochemical assay (in vitro kinase assay, 32-P transfer from ATP to Mek1); conditions: full-length wild type b-Raf, Mek1 substrate; for Ki: 25 μM ATP; for inhibition at 1 µM: @ 1 μM compound, read-out: b-Raf % inhib @ 1 μM
T2 construct: Full-length wild type b-Raf is expressed in recombinant form and purified from bacterial or insect cells; made in house; host or cells: bacterial or insect cells
Procedure: Compounds of the present invention were evaluated for potency against b-Raf using an in vitro kinase assay. Raf kinase activity is measured in vitro by determining transfer of radiolabeled 32-P phosphate from ATP to the specific Raf substrate Mek1. Full-length wild type b-Raf is expressed in recombinant form and purified from bacterial or insect cells. Recombinant Mek1 is purified from E. coli bacterial cells. In one assay format (designated G1), the full-length wild type Mek1 is used as the b-Raf substrate. In a second assay format (designated G2), the full-length K97R Mek1 mutant is used as the b-Raf substrate.
In vitro kinase assays are performed in solution containing the following; 50 mM Hepes (pH 7.4), 5 nM b-Raf, 0.8 μM Mek1, 10 mM MgCl2, 25 μM ATP, 0.002% (v/v) Tween-20, 5 μg/mL leupeptin, 1.2 mM DTT, 2% (v/v) DMSO, 0.2-1.0 μCi [γ-^32P]ATP per well.
The assays are performed in wells of a 96 well polypropylene round bottom plate, each well containing 43.5 μL assay mix and 1.5 μL inhibitor compound or DMSO vehicle. 15 μL of b-Raf mix is added and the plate is shaken on a plate shaker and preincubated for 10 minutes at ambient temperature. The reaction is started by addition of 15 μL ATP mix and shaking. The reaction is terminated after 40 minutes by addition of 25 μL 0.5 M EDTA (pH 7.4).
60 μL of the stopped reaction is transferred to a well of a 96-well nylon 66 Biodyne A membrane Silent Screen filter plate (Nalge/Nunc: 256081). The wells are filtered and washed five times with 0.85% phosphoric acid. The filter is placed in a tray with about 50 mL 0.85% phosphoric acid and gently rotated for 10 minutes on an orbital shaker. The procedure is repeated once with fresh 0.85% phosphoric acid. Five samples of 0.5 μL of ATP mix are also spotted onto filter paper for calculation of specific activity. The filters are air dried for one hour and sandwiched between cellophane wrap on an Amersham Biosciences Storage Phosphor Screen and developed at least over night. The image is read using a Molecular Dynamics Storm 840 phosphoimager. Volumes of spots are calculated using ImageQuant5.1.
Raf kinase activity is calculated from the specific activity of [32-P] ATP, 32-P incorporation into Mek1, and the concentration of b-Raf.

T2 sequence (P15056 whole entry): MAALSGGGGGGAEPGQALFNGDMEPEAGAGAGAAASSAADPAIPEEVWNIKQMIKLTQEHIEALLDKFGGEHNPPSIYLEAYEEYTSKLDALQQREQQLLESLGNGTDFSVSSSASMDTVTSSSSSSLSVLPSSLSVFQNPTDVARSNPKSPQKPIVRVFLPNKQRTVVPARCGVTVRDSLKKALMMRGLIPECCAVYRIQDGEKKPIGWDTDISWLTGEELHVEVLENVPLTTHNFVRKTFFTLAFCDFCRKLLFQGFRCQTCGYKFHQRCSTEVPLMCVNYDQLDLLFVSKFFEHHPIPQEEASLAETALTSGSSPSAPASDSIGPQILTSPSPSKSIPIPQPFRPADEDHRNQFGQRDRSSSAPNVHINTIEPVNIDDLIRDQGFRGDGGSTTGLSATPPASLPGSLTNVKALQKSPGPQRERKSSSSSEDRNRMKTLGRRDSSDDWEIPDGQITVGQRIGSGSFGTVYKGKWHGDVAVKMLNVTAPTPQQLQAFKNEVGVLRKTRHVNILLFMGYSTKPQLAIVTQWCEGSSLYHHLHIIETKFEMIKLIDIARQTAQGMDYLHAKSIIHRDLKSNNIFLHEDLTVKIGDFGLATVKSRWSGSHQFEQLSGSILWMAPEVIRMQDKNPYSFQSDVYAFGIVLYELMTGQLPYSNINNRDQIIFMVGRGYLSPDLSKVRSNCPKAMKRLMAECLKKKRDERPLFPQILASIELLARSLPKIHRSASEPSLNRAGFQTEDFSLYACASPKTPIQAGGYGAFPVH
T1 sequence (P15056 whole entry V600E): as the sequence (P15056 whole entry) above, with V600E counted along it

| SMILES | IC50 (b-Raf [1]; Table 2) [nM] | Ki (b-Raf [2]) [nM] | inhibition at 1 µM (b-Raf [2]) [%] | IC50 (b-Raf [1]; Table 3) [nM] |
| --- | --- | --- | --- | --- |
| CC(C)n1cc(-c2ccnc(NC[C@H](C)O)n2)c(-c2cnc3c(c2)CCN3)n1 [Example B-12, (2S)-1-(4-(3-(2,3-dihydro-1H-pyrrolo[2,3-b]pyridin-5-yl)-1-isopropyl-1H-pyrazol-4-yl)pyrimidin-2-ylamino)propan-2-ol] | 450 | 1.6 | – | – |
| CC(C)n1cc(-c2ccnc(NCCn3ccccc3=O)n2)c(-c2cnc3[nH]ccc3c2)n1 [Example D-8, 1-[2-({4-[1-isopropyl-3-(1H-pyrrolo[2,3-b]pyridin-5-yl)-1H-pyrazol-4-yl]pyrimidin-2-yl}amino)ethyl]pyridin-2(1H)-one] | 542 | 0.7 | 100 | – |
| CC(C)n1cc(-c2ccnc(NC[C@H](C)O)n2)c(-c2cnc3[nH]ccc3c2)n1 [Example B-1, (2S)-1-(4-(1-isopropyl-3-(1H-pyrrolo[2,3-b]pyridin-5-yl)-1H-pyrazol-4-yl)pyrimidin-2-ylamino)propan-2-ol] | 154 | 0.5 | 102 | – |
| CC(C)n1cc(-c2ccnc(NCCc3cn[nH]c3)n2)c(-c2cnc3[nH]ccc3c2)n1 [Example D-7, 4-[1-isopropyl-3-(1H-pyrrolo[2,3-b]pyridin-5-yl)-1H-pyrazol-4-yl]-N-[2-(1H-pyrazol-4-yl)ethyl]pyrimidin-2-amine] | 386 | 0.5 | 99 | – |
| C[C@H](O)CNc1nccc(-c2cn(CC(F)F)nc2-c2cnc3[nH]ccc3c2)n1 [Example B-14, (2S)-1-(4-(1-(2,2-difluoroethyl)-3-(1H-pyrrolo[2,3-b]pyridin-5-yl)-1H-pyrazol-4-yl)pyrimidin-2-ylamino)propan-2-ol] | 510 | 0.7 | 100 | – |
| CC(C)n1cc(-c2ccnc(NCCO)n2)c(-c2cnc3[nH]ccc3c2)n1 [Example D-6, 2-({4-[1-isopropyl-3-(1H-pyrrolo[2,3-b]pyridin-5-yl)-1H-pyrazol-4-yl]pyrimidin-2-yl}amino)ethanol] | 369 | 1.36 | 101 | – |
| C[C@H](O)CNc1nccc(-c2cn(C)nc2-c2cnc3[nH]ccc3c2)n1 [Example B-13, (2S)-1-(4-(1-methyl-3-(1H-pyrrolo[2,3-b]pyridin-5-yl)-1H-pyrazol-4-yl)pyrimidin-2-ylamino)propan-2-ol] | 6270 | 22.7 | – | – |
| COCCNc1nccc(-c2cn(C(C)C)nc2-c2cnc3[nH]ccc3c2)n1 [Example D-13, 4-[1-isopropyl-3-(1H-pyrrolo[2,3-b]pyridin-5-yl)-1H-pyrazol-4-yl]-N-(2-methoxyethyl)-pyrimidin-2-amine] | 2990 | 0.7 | 100 | – |
| C[C@H](O)CNc1nccc(-c2cn(CC3(C)COC3)nc2-c2cnc3[nH]ccc3c2)n1 [Example B-15, (2S)-1-(4-(1-((3-methyloxetan-3-yl)methyl)-3-(1H-pyrrolo[2,3-b]pyridin-5-yl)-1H-pyrazol-4-yl)pyrimidin-2-ylamino)propan-2-ol] | 3250 | 6.2 | – | – |
| Cc1cc(-c2nn(C(C)C)cc2-c2ccnc(NC[C@H](C)O)n2)cnc1N [Example B-3, (2S)-1-(4-(3-(6-amino-5-methylpyridin-3-yl)-1-isopropyl-1H-pyrazol-4-yl)pyrimidin-2-ylamino)propan-2-ol] | 815 | 11 | 98 | – |
| C[C@H](O)CNc1nccc(-c2cn(CC#N)nc2-c2cnc3[nH]ccc3c2)n1 [Example C-1, [4-[2-((S)-2-Hydroxy-propylamino)-pyrimidin-4-yl]-3-(1H-pyrrolo[2,3-b]pyridin-5-yl)-pyrazol-1-yl]-acetonitrile] | 483 | 3.9 | – | – |
| CC(C)n1cc(-c2ccnc(NC[C@H](C)O)n2)c(-c2cnc3[nH]cc(Cl)c3c2)n1 [Example B-11, (2S)-1-(4-(3-(3-chloro-1H-pyrrolo[2,3-b]pyridin-5-yl)-1-isopropyl-1H-pyrazol-4-yl)pyrimidin-2-ylamino)propan-2-ol] | 7 | < 0.1 | – | – |
| Cc1[nH]c2ncc(-c3nn(C(C)C)cc3-c3ccnc(NC[C@H](C)O)n3)cc2c1Cl [Example E-3, (2S)-1-(4-(3-(3-chloro-2-methyl-1H-pyrrolo[2,3-b]pyridin-5-yl)-1-isopropyl-1H-pyrazol-4-yl)pyrimidin-2-ylamino)propan-2-ol] | 165 | 0.6 | – | – |
| CCN1CC(CNc2nccc(-c3cn(C(C)C)nc3-c3cnc4[nH]ccc4c3)n2)CC1=O [Example D-14, 1-ethyl-4-[({4-[1-isopropyl-3-(1H-pyrrolo[2,3-b]pyridin-5-yl)-1H-pyrazol-4-yl]pyrimidin-2-yl}amino)methyl]-pyrrolidin-2-one] | 3140 | 4.8 | 99 | – |
| Cc1n[nH]c2ncc(-c3nn(C(C)C)cc3-c3ccnc(NC[C@H](C)O)n3)cc12 [Example D-2, (2S)-1-(4-(1-isopropyl-3-(3-methyl-1H-pyrazolo[3,4-b]pyridin-5-yl)-1H-pyrazol-4-yl)pyrimidin-2-ylamino)propan-2-ol] | 109 | 0.3 | – | – |
| C[C@H](O)CNc1nccc(-c2cn(CC3(C)COC3)nc2-c2cnc3[nH]cc(Cl)c3c2)n1 [Example E-4, (2S)-1-(4-(3-(3-chloro-1H-pyrrolo[2,3-b]pyridin-5-yl)-1-((3-methyloxetan-3-yl)methyl)-1H-pyrazol-4-yl)pyrimidin-2-ylamino)propan-2-ol] | 188 | 1.9 | – | – |
| Cc1[nH]c2ncc(-c3nn(C(C)C)cc3-c3ccnc(NC[C@H](C)O)n3)cc2c1C [Example B-6, (2S)-1-(4-(3-(2,3-dimethyl-1H-pyrrolo[2,3-b]pyridin-5-yl)-1-isopropyl-1H-pyrazol-4-yl)pyrimidin-2-ylamino)propan-2-ol] | 44 | 1.5 | – | – |
| Cc1nc(CNc2nccc(-c3cn(C(C)C)nc3-c3cnc4[nH]ccc4c3)n2)c(C)o1 [Example D-11, N-[(2,5-dimethyl-1,3-oxazol-4-yl)methyl]-4-[1-isopropyl-3-(1H-pyrrolo[2,3-b]pyridin-5-yl)-1H-pyrazol-4-yl]pyrimidin-2-amine] | 1320 | 0.8 | 100 | – |
| CC(C)n1cc(-c2ccnc(NCC3CCOC3)n2)c(-c2cnc3[nH]ccc3c2)n1 [Example D-12, 4-[1-isopropyl-3-(1H-pyrrolo[2,3-b]pyridin-5-yl)-1H-pyrazol-4-yl]-N-(tetrahydrofuran-3-ylmethyl)pyrimidin-2-amine] | 1520 | 1.4 | 99 | – |
| CNc1ncc(-c2nn(C(C)C)cc2-c2ccnc(NC[C@H](C)O)n2)cc1C [Example B-4, (2S)-1-(4-(1-isopropyl-3-(5-methyl-6-(methylamino)pyridin-3-yl)-1H-pyrazol-4-yl)pyrimidin-2-ylamino)propan-2-ol] | 3370 | 272 | 74 | – |
| CC(C)n1cc(-c2ccnc(NC[C@H](C)O)n2)c(-c2cnc3[nH]cc(Cl)c3n2)n1 [Example I-2, (2S)-1-({4-[3-(7-chloro-5H-pyrrolo[2,3-b]pyrazin-2-yl)-1-isopropyl-1H-pyrazol-4-yl]pyrimidin-2-yl}amino)propan-2-ol] | – | – | – | 20 |
| Cc1c[nH]c2ncc(-c3nn(C(C)C)cc3-c3ccnc(N)n3)cc12 [Example B-62, 4-[1-isopropyl-3-(3-methyl-1H-pyrrolo[2,3-b]pyridin-5-yl)-1H-pyrazol-4-yl]pyrimidin-2-amine] | – | – | – | 48.1 |
| CC(C)(C)n1cc(-c2ccnc(N)n2)c(-c2cnc3[nH]cc(Cl)c3c2)n1 [Example B-65, 4-[1-tert-butyl-3-(3-chloro-1H-pyrrolo[2,3-b]pyridin-5-yl)-1H-pyrazol-4-yl]pyrimidin-2-amine] | – | – | – | 9.04 |

Source: US7772246B2 (Pfizer Inc., priority 2007, dated 2010)
